The source of these data is US20120270844A1, “METHODS FOR TREATING ALZHEIMER'S DISEASE” (aFRAXis, Inc., priority 2009, published 2012).

SMILES strings stand for the structures.

Holding throughout (type): biochemical
One assay has as its target PAK1 (Homo sapiens, UniProt Q13153). The assay can be described thus: Z'Lyte fluorescence-based (FRET) PAK kinase assay, PAK1. The note with it: Table 1 of Example 100; 50 μM ATP. How it is done:
(§1) A fluorescence-based assay format is used to determine IC50 values of test compounds in vitro. Purified PAK kinase is incubated with ATP, and a test compound at various concentrations and a substrate peptide containing two fluorophores. In a second step, the reaction mix is incubated with a site-specific protease that cleaves non-phosphorylated bat not phosphorylated substrate peptide, disrupting the FRET signal generated by the two fluorophores in the cleaved peptide (Z′Lyte™ Kinase assay platform; Life Technologies).
(§2) Reagents: 50 mM HEPES, pH 7.5; 0.01% BRIJ-35; […]; 1 mM EGTA, 2 uM substrate peptide Ser/Thr20 (proprietary Life Technologies Sequence), PAK enzyme [2.42-30.8 ng for PAK1, 0.29-6 ng for PAK2, 1.5-20 ng for PAK3 and 0.1-0.86 ng for PAK4; actual enzyme amounts depend on lot activity of the enzyme preparation]
(§3) Test compounds are dissolved in DMSO at various concentrations; the final DMSO concentration in the assay reaction is 1%.
(§4) ATP concentration at […] apparent is used in the assay [50 ┌M ATP for PAK1 assay, 75 ┌M ATP for PAK2 assay, 100 μM ATP for PAK3 assay, 5 μM ATP for PAK4 assay] in a total assay volume of 10 μl. Assay reactions are incubated at room temperature for 1 hr. Following the kinase reaction, 5 μl of 1:256 dilution of development solution A (Life Technologies) is added and the reaction mix is incubated for an additional 1 hr at room temperature.
(§5) Plates are analyzed in a standard fluorescence plate reader (Tecan or equivalent) using an excitation wavelength of 400 nn and emission wavelengths of 445 nm and 520 nm.
(§6) Inhibition of kinase reaction is determined by emission ratio=emission@445 nm/emission@520 nm
(§7) A fluorescence-based assay format is used to determine IC50 values of test compounds in vitro. Purified PAK kinase is incubated with ATP, and a test compound at various concentrations and a substrate peptide containing two fluorophores. In a second step, the reaction mix is incubated with a site-specific protease that cleaves non-phosphorylated but not phosphorylated substrate peptide, disrupting the FRET signal generated by the two fluorophores in the cleaved peptide (Z'Lyte™ Kinase assay platform Life Technologies).
(§8) Reagents: 50 mM HEPES, pH 7.5; 0.01% BRIJ-35; 10 mM MgCl2; 1 mM EGTA, 2 uM substrate peptide Ser/Thr20 (proprietary Life Technologies Sequence), PAK enzyme [2.42-30.8 ng for PAK1, 0.29-6 ng for PAK2, 1.5-20 ng for PAK3 and 0.1-0.86 ng for PAK4; actual enzyme amounts depend on lot activity of the enzyme preparation]
(§9) ATP concentration at Km apparent is used in the assay [50 μMATP for PAK1 assay, 75 µM ATP for PAK2 assay, 100 μM ATP for PAK3 assay, 5 μM ATP for PAK4 assay] in a total assay volume of […] Assay reactions are incubated at room temperature for 1 hr. Following the kinase reaction. […] of 1:256 dilution of development solution A (Life Technologies) is added and the reaction mix is incubated for an additional 1 hr at room temperature.
(§10) Plates are analyzed in a standard fluorescence plate reader (Teem or equivalent) using an excitation wavelength of 400 nm and emission wavelengths of 445 nm and 520 nm.

For a further assay, the target named is PAK2 (Homo sapiens, UniProt Q13177). The assay can be described thus: Z'Lyte fluorescence-based (FRET) PAK kinase assay, PAK2. The conditions noted are these: Table 1 of Example 100; 75 μM ATP. How it is done:
as §1, §2, §3, §4, §5, §6, §7, §8, §9, §10

The target in another assay is PAK3 (Homo sapiens, UniProt O75914). The assay can be described thus: Z'Lyte fluorescence-based (FRET) PAK kinase assay, PAK3. The conditions noted are these: Table 1 of Example 100; 100 μM ATP. The procedure: as §1, §2, §3, §4, §5, §6, §7, §8, §9, §10
Sequence of PAK3 (O75914 whole entry): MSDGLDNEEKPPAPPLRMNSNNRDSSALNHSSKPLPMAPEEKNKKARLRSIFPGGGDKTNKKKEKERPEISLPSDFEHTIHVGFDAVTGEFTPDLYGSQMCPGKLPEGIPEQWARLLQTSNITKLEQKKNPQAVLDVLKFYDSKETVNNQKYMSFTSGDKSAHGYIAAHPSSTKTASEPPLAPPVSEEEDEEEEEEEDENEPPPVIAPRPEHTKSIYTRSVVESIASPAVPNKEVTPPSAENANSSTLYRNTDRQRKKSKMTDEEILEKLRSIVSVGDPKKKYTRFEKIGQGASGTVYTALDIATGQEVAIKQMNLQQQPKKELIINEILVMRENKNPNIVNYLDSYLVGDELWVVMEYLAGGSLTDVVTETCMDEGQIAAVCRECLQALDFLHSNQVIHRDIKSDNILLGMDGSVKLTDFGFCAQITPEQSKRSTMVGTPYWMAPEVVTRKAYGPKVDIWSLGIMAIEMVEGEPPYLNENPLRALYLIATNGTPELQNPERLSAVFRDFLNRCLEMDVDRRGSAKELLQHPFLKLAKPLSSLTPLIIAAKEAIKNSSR
Another assay addresses PAK4 (Homo sapiens, UniProt O96013). Description: Z'Lyte fluorescence-based (FRET) PAK kinase assay, PAK4. The note with it: Table 1 of Example 100; 5 μM ATP. The procedure: as §1, §2, §3, §4, §5, §6, §7, §8, §9, §10

Sequence of PAK4 (O96013 whole entry): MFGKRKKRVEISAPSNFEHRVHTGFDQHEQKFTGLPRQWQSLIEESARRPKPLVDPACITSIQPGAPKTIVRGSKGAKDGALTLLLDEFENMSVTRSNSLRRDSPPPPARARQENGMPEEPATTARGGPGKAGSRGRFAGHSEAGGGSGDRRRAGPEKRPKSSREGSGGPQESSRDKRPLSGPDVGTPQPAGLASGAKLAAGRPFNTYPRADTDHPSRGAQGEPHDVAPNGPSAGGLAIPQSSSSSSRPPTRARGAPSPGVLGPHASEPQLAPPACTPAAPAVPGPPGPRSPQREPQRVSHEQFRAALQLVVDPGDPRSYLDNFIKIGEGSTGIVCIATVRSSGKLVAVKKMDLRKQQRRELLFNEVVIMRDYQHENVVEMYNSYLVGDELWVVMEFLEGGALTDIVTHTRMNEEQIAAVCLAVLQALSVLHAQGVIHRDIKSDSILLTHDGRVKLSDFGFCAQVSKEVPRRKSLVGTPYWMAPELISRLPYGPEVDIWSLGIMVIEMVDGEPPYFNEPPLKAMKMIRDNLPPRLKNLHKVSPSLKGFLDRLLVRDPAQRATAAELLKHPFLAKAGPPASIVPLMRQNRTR
Sequence of PAK1 (Q13153 whole entry): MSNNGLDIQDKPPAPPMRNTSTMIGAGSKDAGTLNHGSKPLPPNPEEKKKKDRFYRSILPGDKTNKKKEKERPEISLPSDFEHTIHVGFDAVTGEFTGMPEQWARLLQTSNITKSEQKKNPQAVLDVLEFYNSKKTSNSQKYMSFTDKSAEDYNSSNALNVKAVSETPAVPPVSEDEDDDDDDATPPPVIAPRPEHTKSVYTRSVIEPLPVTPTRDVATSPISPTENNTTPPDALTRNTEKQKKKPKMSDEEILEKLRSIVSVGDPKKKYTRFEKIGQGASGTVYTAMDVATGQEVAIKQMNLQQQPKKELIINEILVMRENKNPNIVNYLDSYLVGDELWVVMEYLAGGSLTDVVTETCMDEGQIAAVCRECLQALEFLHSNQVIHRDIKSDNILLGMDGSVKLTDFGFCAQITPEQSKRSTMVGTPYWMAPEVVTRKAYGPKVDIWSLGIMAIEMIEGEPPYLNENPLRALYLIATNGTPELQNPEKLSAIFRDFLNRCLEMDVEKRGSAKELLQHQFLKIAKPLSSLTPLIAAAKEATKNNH
Sequence of PAK2 (Q13177 whole entry): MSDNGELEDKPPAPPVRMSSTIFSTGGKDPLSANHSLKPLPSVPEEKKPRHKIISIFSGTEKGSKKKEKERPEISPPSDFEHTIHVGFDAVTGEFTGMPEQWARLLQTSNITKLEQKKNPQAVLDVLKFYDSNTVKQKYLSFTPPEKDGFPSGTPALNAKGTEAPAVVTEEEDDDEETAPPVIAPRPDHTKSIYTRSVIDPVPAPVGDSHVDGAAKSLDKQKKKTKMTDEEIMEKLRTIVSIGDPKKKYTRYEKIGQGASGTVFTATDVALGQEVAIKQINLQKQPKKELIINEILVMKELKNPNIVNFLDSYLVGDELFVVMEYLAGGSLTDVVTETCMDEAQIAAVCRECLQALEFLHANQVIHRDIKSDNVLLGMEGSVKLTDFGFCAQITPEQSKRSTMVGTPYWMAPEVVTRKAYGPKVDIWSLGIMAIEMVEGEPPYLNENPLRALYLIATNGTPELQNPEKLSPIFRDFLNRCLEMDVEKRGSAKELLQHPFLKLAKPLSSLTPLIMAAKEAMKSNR

Turning to `O=c1ccc2cnc(Nc3ccc(OC4CCCNC4)cc3)nc2n1Cc1ccccc1C(F)(F)F` (stereo not shown) [Compound 14], the IC50 against PAK1, at PAK2, at PAK3 and on PAK4 was below 1000 nM in each case.
In the case of `CN1CCN(c2ccc(Nc3ncc4ccc(=O)n(C5CCOc6ccccc65)c4n3)cc2)CC1` (stereo not shown) [Compound 15], the IC50 against PAK1, against PAK2, against PAK3 and at PAK4 was 1000 to 10000 nM each time.
Turning to `CN(C)CC(c1ccccc1)n1c(=O)ccc2cnc(Nc3ccc(N4CCOCC4)cc3)nc21` (stereo not shown) [Compound 16], the IC50 against PAK1, on PAK2, against PAK3 and against PAK4 was above 10000 nM throughout.
`CN1CCN(c2ccc(Nc3ncc4ccc(=O)n(C5Cc6ccccc6C5)c4n3)cc2)CC1` [Compound 17]: the IC50 at PAK1 is below 1000 nM; against PAK2, 1000 to 10000 nM; at PAK3, 1000 to 10000 nM; against PAK4, below 1000 nM.
In the case of `CN1CCN(c2ccc(Nc3ncc4ccc(=O)n(C5CCc6ccccc6C5)c4n3)cc2)CC1` (stereo not shown) [Compound 18], the IC50 against PAK1, on PAK2, on PAK3 and at PAK4 was below 1000 nM in each case.
Turning to `CN(C)CC(c1ccccc1)n1c(=O)ccc2cnc(Nc3ccc(N4CCN(C)CC4)cc3)nc21` (stereo not shown) [Compound 19], the IC50 on PAK1, against PAK2, at PAK3 and against PAK4 was above 10000 nM each time.
On to `CN1CCN(c2ccc(Nc3ncc4ccc(=O)n(C5CCC(C)(C)c6ccccc65)c4n3)cc2)CC1` (stereo not shown) [Compound 20], for which the IC50 at PAK1 was below 1000 nM; against PAK2, below 1000 nM; against PAK3, 1000 to 10000 nM; on PAK4, 1000 to 10000 nM.
As to `O=c1ccc2cnc(Nc3ccc(N4CCNCC4)c(F)c3)nc2n1C1Cc2ccccc2C1` [Compound 21], the IC50 against PAK1 was below 1000 nM; at PAK2 it was below 1000 nM; on PAK3 it was 1000 to 10000 nM; against PAK4 it was below 1000 nM.
With `O=c1ccc2cnc(Nc3ccc(N4CCNCC4)c(F)c3)nc2n1C1CCc2ccccc2C1` (stereo not shown) [Compound 22], the concentration for half-maximal inhibition (IC50) against PAK1, against PAK2, on PAK3 and on PAK4 was below 1000 nM in each case.
Consider `CN1CCN(c2ccc(Nc3ncc4ccc(=O)n(Cc5ccccc5C(F)(F)F)c4n3)cc2)CC1` [Compound 42], for which the IC50 against PAK1, against PAK2, against PAK3 and against PAK4 was below 1000 nM throughout.
Turning to `CN1CCN(c2ccc(Nc3ncc4ccc(=O)n(Cc5ccccc5SC(F)(F)F)c4n3)cc2)CC1` [Compound 43], the IC50 against PAK1, against PAK2, against PAK3 and against PAK4 was below 1000 nM in each case.
As for `CN1CCN(c2ccc(Nc3ncc4ccc(=O)n(Cc5ccccc5OC(F)F)c4n3)cc2)CC1` [Compound 44], the IC50 at PAK1, against PAK2, at PAK3 and against PAK4 was below 1000 nM in each case.
For `Cc1cc(F)ccc1Cn1c(=O)ccc2cnc(Nc3ccc(N4CCN(C)CC4)cc3)nc21` [Compound 45], the IC50 against PAK1, at PAK2, at PAK3 and against PAK4 was 1000 to 10000 nM throughout.
On to `Cc1ccc(C)c(Cn2c(=O)ccc3cnc(Nc4ccc(N5CCN(C)CC5)cc4)nc32)c1` [Compound 46], for which the IC50 against PAK1, against PAK2, at PAK3 and against PAK4 was 1000 to 10000 nM in each case.
As to `CC(c1ccccc1)n1c(=O)ccc2cnc(Nc3ccc(N4CCN(C)CC4)cc3)nc21` (stereo not shown) [Compound 48], the IC50 on PAK1 is 1000 to 10000 nM; at PAK2, 1000 to 10000 nM; against PAK3, above 10000 nM; on PAK4, 1000 to 10000 nM.
For the compound `CN1CCN(c2ccc(Nc3ncc4ccc(=O)n(CCc5ccccc5)c4n3)cc2)CC1` [Compound 49], the IC50 is below 1000 nM at PAK1, below 1000 nM against PAK2, 1000 to 10000 nM on PAK3 and below 1000 nM on PAK4.

One may read the IC50 as the concentration at which inhibition is half-maximal. The low end stands for inhibition by little substance, the high end for a need for much substance.
